From patent publication EP3409278B1, “HETEROCYCLIC PROTEIN KINASE INHIBITORS” (Tolero Pharmaceuticals, Inc., priority 2011, dated 2013)

target: Pim-1 kinase (Homo sapiens, UniProt P11309); test: Pim-1 kinase inhibition assay (Promega Kinase-Glo); assay type: biochemical; conditions: not given
Text: One illustrative manner in which Pim-1 kinase activity can be determined is by quantifying the amount of ATP remaining in solution after an in vitro Pim-1 kinase reaction. The Kinase-Glo Assay Kit (Promega, Inc., Madison, WI) allows this. The amount of ATP remaining in the solution after the kinase reaction serves as a substrate for the luciferase to catalyze luciferin to oxyluciferin plus one photon of light. Thus, the luminescent signal read by the Luminoskan Ascent Instrument (Thermo Electron Corp., Milford, MA) correlates with the amount of ATP present after the kinase reaction and inversely correlates with the amount of kinase acitivity. […] These assays are set up in duplicate 50ul volumes in white, flat bottom 96 well plates. […] This solution is incubated at 30 degrees Celsius at 360rpm for two hours. Following the incubation, 50ul of Kinase-Glo reagent is added to each well, including all positive and negative control wells, and incubated at room temperature for 15 minutes. […] The IC50 values can then be calculated for each inhibitor tested.

| Compound | IC50 |
| --- | --- |
| CC(C)(O)[C@H]1CC[C@H](Oc2ccc3ncc(-c4cccc(Cl)c4)n3n2)CC1 [8-77, 2-(trans-4-((3-(3-chlorophenyl)imidazo[1,2-b]pyridazin-6-yl)oxy)cyclohexyl)propan-2-ol] | […] |

same assay, conditions: Table IV; Kinase-Glo, 10uM ATP; read-out: IC50 on Pim1

Chain of Pim-1 kinase (P11309 whole entry): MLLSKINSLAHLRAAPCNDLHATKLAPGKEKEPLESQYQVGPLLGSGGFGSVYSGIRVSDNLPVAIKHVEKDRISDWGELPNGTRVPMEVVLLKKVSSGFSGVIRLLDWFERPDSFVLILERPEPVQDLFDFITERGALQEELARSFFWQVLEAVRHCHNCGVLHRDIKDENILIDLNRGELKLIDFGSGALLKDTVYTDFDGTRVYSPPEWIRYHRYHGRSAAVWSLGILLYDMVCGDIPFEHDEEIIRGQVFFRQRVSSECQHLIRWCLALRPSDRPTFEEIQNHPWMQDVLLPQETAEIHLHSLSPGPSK

| IC50 | Compound |
| --- | --- |
| 0.009 µM | CC(C)(O)[C@H]1CC[C@H](Nc2ccc3ncc(-c4cccc(OC(F)(F)F)c4)n3n2)CC1 [8-10] |
| 0.058 µM | O=S1(=O)CCC(CNc2ccc3ncc(-c4cccc(OC(F)(F)F)c4)n3n2)CC1 [8-13, 4-(((3-(3-(Trifluoromethoxy)phenyl)imidazo[1,2-b]pyridazin-6-yl)amino)methyl)tetrahydro-2H-thiopyran 1,1-dioxide] |
| 0.005 µM | N[C@H]1CC[C@H](Nc2ccn3ncc(-c4cccc(OC(F)(F)F)c4)c3n2)CC1 [8-52, N-(3-(3-(Trifluoromethoxy)phenyl)pyrazolo[1,5-a]pyrimidin-5-yl)cyclohexane-1,4-trans-diamine] |
| 0.017 µM | CC(C)(O)[C@H]1CC[C@H](Nc2ccn3ncc(-c4cccc(C(F)(F)F)c4)c3n2)CC1 [8-56] |
| 0.066 µM | CO[C@H]1CC[C@H](Nc2ccn3ncc(-c4cccc(C(F)(F)F)c4)c3n2)CC1 [8-57, 4-(trans-Methoxycyclohexyl)-3-(3-(trifluoromethyl)phenyl)pyrazolo[1,5-a]pyrimidin-5-amine] |
| 0.023 µM | CC(C)(O)[C@H]1CC[C@H](Nc2ccn3ncc(-c4cccc(Cl)c4)c3n2)CC1 [8-63] |
| 0.068 µM | CO[C@H]1CC[C@H](Nc2ccn3ncc(-c4cccc(Cl)c4)c3n2)CC1 [8-64, 3-((3-Chlorophenyl)-N-4-methoxy-trans-cyclohexyl)pyrazolo[1,5-a]pyrimidin-5-amine] |
| 0.004 µM | N[C@H]1CC[C@H](Nc2ccc3ncc(-c4cccc(Cl)c4)n3n2)CC1 [8-68, N1-(3-(3-Chlorophenyl)imidazo[1,2-b]pyridazin-6-yl)cyclohexane-1,4-trans-diamine] |
| 0.012 µM | N[C@H]1CCCN(c2ccc3ncc(-c4cccc(Cl)c4)n3n2)C1 [8-71, (S)-1-(3-(3-chlorophenyl)imidazo[1,2-b]pyridazin-6-yl)piperidin-3-amine] |
| 0.056 µM | CC(C)(O)[C@H]1CC[C@H](Nc2ccc3ncc(-c4cccc(F)c4)n3n2)CC1 [8-75, 2-(trans-4-((3-(3-fluorophenyl)imidazo[1,2-b]pyridazin-6-yl)amino)cyclohexyl)propan-2-ol] |

Continued, compound first:

| Compound | IC50 |
| --- | --- |
| O=S1(=O)CCC(CNc2ccn3ncc(-c4cccc(OC(F)(F)F)c4)c3n2)CC1 [8-51, 4-(((3-(3-(Trifluoromethoxy)phenyl)pyrazolo[1,5-a]pyrimidin-5-y/)amino)methyl)tetrahydro-2H-thiopyran 1,1-dioxide] | 0.148 µM |
| N[C@H]1CCCN(c2ccn3ncc(-c4cccc(OC(F)(F)F)c4)c3n2)C1 [8-53, (S)-1-(3-(3-(Trifluoromethoxy)phenyl)pyrazolo[1,5-a]pyrimidin-5-yl)piperidin-3-amine] | 0.132 µM |
| FC(F)(F)c1cccc(-c2cnn3ccc(NC4CCOCC4)nc23)c1 [8-58, N-(Tetrahydro-2H-pyran-4-yl)-3-(3-(trifluoromethyl)phenyl)pyrazolo[1,5-a]pyrimidin-5-amine] | 0.149 µM |
| O=S1(=O)CCC(CNc2ccn3ncc(-c4cccc(C(F)(F)F)c4)c3n2)CC1 [8-59, 4-(((3-(3-(Trifluoromethyl)phenyl)pyrazolo[1,5-a]pyrimidin-5-yl)amino)methyl)tetrahydro-2H-thiopyran 1,1-dioxide] | 0.111 µM |
| Clc1cccc(-c2cnn3ccc(NC4CCOCC4)nc23)c1 [8-65, 3-(3-Chlorophenyl)-N-(tetrahydro-2H-pyran-4-yl)pyrazolo[1,5-a]pyrimidin-5-amine] | 0.186 µM |
| O=S1(=O)CCC(CNc2ccn3ncc(-c4cccc(Cl)c4)c3n2)CC1 [8-66, 4-(((3-(3-Chlorophenyl)pyrazolo[1,5-a]pyrimidin-5-yl)amino)methyl)tetrahydro-2H-thiopyran 1.1-dioxide] | 0.164 µM |
| CN1CCC(CNc2ccn3ncc(-c4cccc(OC(F)(F)F)c4)c3n2)CC1 [8-67, N-((1-Methylpiperidin-4-yl)methyl)-3-(3-(trifluoromethoxy)phenyl)pyrazolo[1,5-a]pyrimidin-5-amine] | 0.045 µM |
| NC1CCCC(Nc2ccc3ncc(-c4cccc(Cl)c4)n3n2)C1 (stereo not shown) [8-70, N^1-(3-(3-chlorophenyl)imidazo[1,2-b]pyridazin-6-yl)cyclohexane-1,3-diamine] | 0.008 µM |
| ON=C1CCC(Nc2ccc3ncc(-c4cccc(Cl)c4)n3n2)CC1 (stereo not shown) [8-92, 4-((3-(3-chlorophenyl)imidazo[1,2-b]pyridazin-6-yl)amino)cyclohexanone oxime] | 0.038 µM |
| N[C@H]1CCCN(c2ccn3ncc(-c4cccc(Cl)c4)c3n2)C1 [8-96, (S)-1-(3-(3-chlorophenyl)pyrazolo[1,5-a]pyrimidin-5-yl)piperidin-3-amine] | 0.094 µM |

same assay, conditions: Table V; Kinase-Glo, 10uM ATP; read-out: IC50 on Pim1

| IC50 | Compound |
| --- | --- |
| 3.25 µM | FC(F)(F)Oc1cccc(-c2nnc3ccc(NC4CCOCC4)cn23)c1 [8-102, N-(Tetrahydro-2H-pyran-4-yl)-3-(3-(trifluoromethoxy)phenyl)-[1,2,4]triazolo[4,3-a]pyridin-6-amine] |
| 0.684 µM | O[C@H]1CC[C@H](Nc2ccc3nnc(-c4cccc(OC(F)(F)F)c4)n3c2)CC1 [8-104, 4-((3-(3-(Trifluoromethoxy)phenyl)-[1,2,4]triazolo[4,3-a]pyridin-6-yl)amino)-trans-cyclohexanol] |
| 2.49 µM | FC(F)(F)Oc1cccc(-c2nnc3ccc(N[C@H]4CC[C@@H](Br)CC4)cn23)c1 [8-105, 4-(cis-Bromocyclohexyl)-3-(3-(trifluoromethoxy)phenyl)-(1,2,4]triazolo[4,3-a]pyridin-6-amine] |
| 3.95 µM | O[C@H]1CC[C@H](Nc2ccc3nnc(-c4cccc(C(F)(F)F)c4)n3c2)CC1 [8-107, 4-((3-(3-(Trifluoromethyl)phenyl)-[1,2,4]triazolo[4,3-a]pyridin-6-yl)amino)-trans-cyclohexanol] |
| 3.87 µM | CC(C)(O)[C@H]1CC[C@H](Nc2ccc3nnc(-c4cccc(C(F)(F)F)c4)n3c2)CC1 [8-109] |
| 3.17 µM | FC(F)(F)c1cccc(-c2nnc3ccc(NC4CCOCC4)cn23)c1 [8-110, N-(Tetrahydro-2H-pyran-4-y/)-3-(3-(trifluoromethy/)pheny/)-[1,2,4]triazolo[4,3-a]pyridin-6-amine] |

The remaining lines, values behind:

| Compound | IC50 |
| --- | --- |
| CC(C)(O)[C@H]1CC[C@H](Nc2ccc3nnc(-c4cccc(OC(F)(F)F)c4)n3c2)CC1 [8-101] | 0.488 µM |
| O=S1(=O)CCC(CNc2ccc3nnc(-c4cccc(OC(F)(F)F)c4)n3c2)CC1 [8-103, 4-(((3-(3-(Trifluoromethoxy)phenyl)-[1,2,4]triazolo[4,3-a]pyridin-6-y/)amino)methyl)tetrahydro-2H-thiopyran 1,1-dioxide] | 3.8 µM |

same assay, conditions: Table V; cells that print µM; read-out: IC50 on Pim1

| Compound | IC50 |
| --- | --- |
| O=S1(=O)CCC(CNc2ccc3nnc(-c4cccc(C(F)(F)F)c4)n3c2)CC1 [8-111] | > 30 µM |
| OCCOc1ccc2nnc(-c3cccc(C(F)(F)F)c3)n2c1 [8-112, 2-((3-(3-(trifluoromethyl)phenyl)-[1,2,4]triazolo[4,3-a]pyridin-6-yl)oxy)ethanol] | > 30 µM |

target: hERG (Homo sapiens, UniProt Q12809); test: hERG Fast Patch assay (WuXiApptec); conditions: not given
Sequence (Q12809 whole entry): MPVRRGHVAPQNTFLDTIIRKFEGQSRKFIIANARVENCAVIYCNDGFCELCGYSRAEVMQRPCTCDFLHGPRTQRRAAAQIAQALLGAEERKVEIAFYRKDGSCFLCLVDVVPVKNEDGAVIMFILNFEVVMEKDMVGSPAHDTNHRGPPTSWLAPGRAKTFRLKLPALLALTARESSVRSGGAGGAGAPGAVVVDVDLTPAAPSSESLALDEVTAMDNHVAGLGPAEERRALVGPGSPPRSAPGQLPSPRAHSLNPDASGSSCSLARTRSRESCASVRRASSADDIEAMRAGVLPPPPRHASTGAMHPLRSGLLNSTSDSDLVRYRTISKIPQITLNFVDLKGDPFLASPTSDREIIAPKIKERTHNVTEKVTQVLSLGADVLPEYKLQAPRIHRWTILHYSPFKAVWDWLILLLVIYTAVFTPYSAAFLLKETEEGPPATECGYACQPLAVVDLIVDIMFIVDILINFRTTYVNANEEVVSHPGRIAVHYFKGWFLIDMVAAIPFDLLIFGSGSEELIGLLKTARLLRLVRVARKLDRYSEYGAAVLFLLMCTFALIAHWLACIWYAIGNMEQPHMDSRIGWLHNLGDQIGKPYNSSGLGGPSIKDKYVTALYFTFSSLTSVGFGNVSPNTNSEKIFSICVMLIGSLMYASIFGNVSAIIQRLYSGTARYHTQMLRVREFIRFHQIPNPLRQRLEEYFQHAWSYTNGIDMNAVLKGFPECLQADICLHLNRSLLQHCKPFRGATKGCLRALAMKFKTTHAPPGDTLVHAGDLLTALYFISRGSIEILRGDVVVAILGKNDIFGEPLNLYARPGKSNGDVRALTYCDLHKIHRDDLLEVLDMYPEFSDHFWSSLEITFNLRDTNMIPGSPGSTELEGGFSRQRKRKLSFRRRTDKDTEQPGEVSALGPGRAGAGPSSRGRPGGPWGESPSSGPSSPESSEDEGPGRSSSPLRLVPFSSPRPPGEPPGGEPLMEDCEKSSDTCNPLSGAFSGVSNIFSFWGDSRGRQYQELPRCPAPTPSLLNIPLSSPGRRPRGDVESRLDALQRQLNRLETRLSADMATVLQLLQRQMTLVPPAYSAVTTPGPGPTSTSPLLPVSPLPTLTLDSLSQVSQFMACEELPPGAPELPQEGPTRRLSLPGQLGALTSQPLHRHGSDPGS

| Compound | IC50 |
| --- | --- |
| C[C@]1(O)CC[C@H](Nc2ccc3ncc(-c4cccc(OC(F)(F)F)c4)n3n2)CC1 [8-9, 1-Methyl-4-((3-(3-(trifluoromethoxy)phenyl)imidazo[1,2-b]pyridazin-6-yl)amino)-trans-cyclohexanol] | 26000 nM |
| CC(C)(O)[C@H]1CC[C@H](Nc2ccc3ncc(-c4cccc(OC(F)(F)F)c4)n3n2)CC1 [8-10] | > 30000 nM |
| O=S1(=O)CCC(CNc2ccc3ncc(-c4cccc(OC(F)(F)F)c4)n3n2)CC1 [8-13, 4-(((3-(3-(Trifluoromethoxy)phenyl)imidazo[1,2-b]pyridazin-6-yl)amino)methyl)tetrahydro-2H-thiopyran 1,1-dioxide] | 10000 nM |
| CO[C@H]1CC[C@H](Nc2ccn3ncc(-c4cccc(Cl)c4)c3n2)CC1 [8-64, 3-((3-Chlorophenyl)-N-4-methoxy-trans-cyclohexyl)pyrazolo[1,5-a]pyrimidin-5-amine] | > 30000 nM |

test system: MOLM-13; test: In vitro viability assay, MOLM-13; assay type: cell-based; conditions: not given
Protocol: (§1) Adherent or suspension cancer cell lines were seeded at 2000-5000 cells/well in a 96-well plate, or 1000-2000 cells/well in a 384-well plate. Suspension cells were treated with drug the same day as seeding, while adherent cells were incubated overnight at 37°Cin 5% CO2 prior to drug treatment. All cells were treated for 72 hours, then lysed with ATPlite (Perkin Elmer) and measured on an Envision microplate reader. IC50 values were determined using GraphPad Prism software.
(§2) Over 35 cell lines were tested, and the most sensitive cell lines from various indications were selected and verified by multiple EC50 determinations (Figure 6). […] Antiproliferative activity using PIM-2 shRNA against FLT3-ITD driven leukemia lines has been observed (Adam (2006) Cancer Res 66:3828-35 data not shown).

| Compound | sensitivity in viability assay |
| --- | --- |
| CC(C)(O)[C@H]1CC[C@H](Nc2ccc3ncc(-c4cccc(C(F)(F)F)c4)n3n2)CC1 [SGI-9481] | particularly sensitive |

test system: MV-4-11; test: In vitro viability assay, MV-4-11; assay type: cell-based; conditions: not given
Protocol: as §1, §2

| Compound | sensitivity in viability assay |
| --- | --- |
| CC(C)(O)[C@H]1CC[C@H](Nc2ccc3ncc(-c4cccc(C(F)(F)F)c4)n3n2)CC1 [SGI-9481] | particularly sensitive |
